In publication PMC6216040, “Repurposing of an old drug: In vitro and in vivo efficacies of buparvaquone against Echinococcus multilocularis” (International Journal for Parasitology: Drugs and Drug …, 2018):
Where two headings read alike, the source gives them in different places.

Tested on: E. multilocularis metacestodes
Experiment: PGI-assay: drug-induced damage on in vitro cultured metacestodes (Pathogen Box screening cascade and EC50)
Assay type: cell-based, Echinococcus multilocularis
Details: for PGI release, % of the Tx-100 control, 5d / PGI release, % of the Tx-100 control, 12d / cytotoxicity at 10 µM: 10 µM, singlets; for cytotoxicity at 10 µM: Echinococcus multilocularis
[1] = confirmatory screening at 10 µM in triplicates, 5 days of incubation, values as % of Tx-100 control
[2] = confirmatory screening at 10 µM in triplicates, 12 days of incubation, values as % of Tx-100 control
[3] = 120 h, 5 days of incubation, read-out: PGI release, % of the Tx-100 control, 5d
[4] = 288 h, 12 days of incubation, read-out: PGI release, % of the Tx-100 control, 12d

SMILES	PGI release, % of the Tx-100 control, 5d (5 days of incubation) [%]	PGI release, % of the Tx-100 control, 12d (12 days of incubation) [%]	further results
c1cc(C2=NCCN2)cc(-c2cc(-c3ccc(C4=NCCN4)cc3)no2)c1 [MMV688361]	-0.63	-1.49	–
O=C(c1cc2ccccc2o1)N1CCN(Cc2ccc3c(c2)OCO3)CC1 [MMV676520]	-0.72	-0.39	–
COc1cc(C2=NCCN2)ccc1-c1cn(-c2cccc(C3=NCCN3)c2)nn1 [MMV688407]	1.48	1.29	–
COc1cncc(-c2cncc(N3CCN(c4ccncc4)CC3)n2)c1 [MMV085071]	0.27	0.48	–
O=C(c1ccc(F)cc1)N(CCNc1ccccc1)c1ccccc1 [MMV676204]	0.89	22.26	PGI release, % of Tx-100 control, average, 5d [1]: -0.89%; PGI release, % of Tx-100 control, average, 12d [2]: -0.80%
COc1ccc(-c2onc(C(F)(F)F)c2-c2ccc(Cl)cc2)c(O)c1 [MMV688766]	7.61	28.52	PGI release, % of Tx-100 control, average, 5d [1]: 1.11%; PGI release, % of Tx-100 control, average, 12d [2]: 0.26%
CCNC(=O)C(C)Nc1nc(-c2cccnc2)nc2sc(C)c(C)c12 (stereo not shown) [MMV1037162]	0.19	-2.69	–
Cc1cc(C(=O)Nc2cnn(Cc3ccc(Cl)cc3Cl)c2)no1 [MMV009054]	-0.80	-0.25	–
CCc1nc2ccc(C(=O)NCc3ccc4c(c3)OCO4)cn2c1N(C)Cc1cccs1 [MMV407539]	-0.20	24.66	PGI release, % of Tx-100 control, average, 5d [1]: -1.01%; PGI release, % of Tx-100 control, average, 12d [2]: 3.14%
COc1ccc(-c2cc(NC(=O)c3ccc(F)cc3Cl)ccc2OC)cc1 [MMV676526]	1.97	-2.37	–
Cc1ccc(NC(=O)c2nc[nH]c2C(=O)Nc2nc3ccccc3[nH]2)c(C)c1 [MMV011903]	41.66	94.00	PGI release, % of Tx-100 control, average, 5d (1 µM, triplicates, 5 days of incubation): -2.96%; PGI release, % of Tx-100 control, average, 12d (1 µM, triplicates, 12 days of incubation): -9.52%; activity in the screen at 10 μM (confirmed in triplicates, >20% relative PGI release) (10 μM, 5 and 12 days): active; PGI release, % of Tx-100 control, average, 5d [1]: 4.49%; PGI release, % of Tx-100 control, average, 12d [2]: 34.00%
O=C(NCc1nnc2n1CCCCC2)c1ccc(-c2ccc(F)cc2)o1 [MMV688796]	-0.28	-3.38	–
O=C(Nc1ccc2c(c1)B(O)OC2)c1ccccc1C(F)(F)F [MMV652003]	1.72	7.32	–
c1coc(CNc2nc(N3CCCCC3)nc3ccccc23)c1 [MMV676401]	-3.33	41.40	PGI release, % of Tx-100 control, average, 5d [1]: -0.0357%; PGI release, % of Tx-100 control, average, 12d [2]: -0.23%
Cc1cc(=O)[nH]c(-n2nc(C)cc2C)n1 [MMV393995]	-1.49	-4.16	–
CCCn1nnc(NC(=O)COc2ccc(C3CCCCC3)cc2)n1 [MMV676597]	0.61	0.33	–
C[C@H](C(N)=O)N1CCCC[C@H]1c1ccc(OCc2cccc(F)c2)cc1 [MMV676269]	1.52	1.07	–
Clc1ccc(CCNc2cc(-c3ccccc3)nc3ncnn23)cc1 [MMV688889]	-3.56	-0.70	–
CCOC(=O)c1c(NC(=O)c2c(F)c(F)c(F)c(F)c2F)sc(C(N)=O)c1C [MMV153413]	1.93	9.70	–

SMILES	PGI release, % of the Tx-100 control, 5d (5 days of incubation) [%]	PGI release, % of the Tx-100 control, 12d (12 days of incubation) [%]	further results
COc1cc(C2=NCCN2)ccc1-n1cc(-c2cccc(C3=NCCN3)c2)nn1 [MMV688474]	-0.50	-0.97	–
COc1ccc(-c2nnc3ccc(-c4cccc(C(C)C)c4)cn23)cc1OC [MMV688313]	-0.11	-3.88	–
O=C(NC1CCCCC1)N1CCN(Cc2ccc3c(c2)OCO3)CC1 [MMV676444]	-3.25	1.66	–
Cc1cc2ccccc2n1CC(=O)N1CC(C(=O)N2CCCCC2)Oc2ccccc21 (stereo not shown) [MMV020520]	-0.40	-0.48	–
Cc1cc(NC(=O)c2ccc(S(=O)(=O)N(Cc3ccccc3)C(C)C)cc2)no1 [MMV007133]	-0.95	0.46	–
Nc1ncnc2c1ncn2C[C@@H](O)[C@@H](O)C(=O)O [MMV689255, Eritadenine]	–	–	cytotoxicity at 10 µM [3]: 0.0047%; cytotoxicity at 10 µM [4]: 0.51%
Nc1ncnc2c1ncn2[C@@H]1O[C@H](COS(=O)(=O)NC(=O)c2ccccc2O)[C@@H](O)[C@H]1O [MMV687700, Salicyl-AMS, reference compound]	-0.78	-1.38	–
C[C@H](c1ccc2c(c1)CCCC2)N(C)c1ncc2c(N)nc(N)nc2n1 [MMV690103]	-3.58	41.60	PGI release, % of Tx-100 control, average, 5d [1]: -0.48%; PGI release, % of Tx-100 control, average, 12d [2]: 4.22%
N#Cc1ccc(-c2cnc(N)c(-c3ccc(C(N)=O)cc3)n2)cc1 [MMV085499]	7.58	0.90	–
Cc1cnc(N2CCN[C@@H](Cc3ccccc3)C2)nc1Oc1ccc(-n2ccnc2)cc1 [MMV687765]	4.75	6.17	–
CC(=O)N1CCN(c2ccc(Oc3ccc(Cl)cc3O)cc2)CC1 [MMV688330]	-0.72	-5.52	–
CCOc1ccc(-c2nc(NC(=O)CS(=O)(=O)c3ccccc3)sc2C)cc1 [MMV007638]	-0.28	0.13	–
O=C(Nc1ccccc1)c1ccc(-c2cc3ccncc3cc2OC2CCNCC2)s1 [MMV024035]	1.01	1.04	–
O=C(NCCc1c[nH]c2ccccc12)c1cc2ccccc2oc1=O [MMV676539]	0.63	17.31	–
O=C(Nc1cnc2ccccc2c1)c1cccc(-n2cnnn2)c1 [MMV084864]	-2.18	-3.92	–
CC(C)(C)C(O)C(Oc1ccc(-c2ccccc2)cc1)n1cncn1 (stereo not shown) [MMV688942, Bitertanol]	–	–	cytotoxicity at 10 µM [3]: -0.93%; cytotoxicity at 10 µM [4]: 0.41%
Nc1ncc(-c2ccc(C(F)(F)F)nc2)cc1-c1ccc(C(F)(F)F)nc1 [MMV668727]	-0.66	-0.51	–
Cc1cc(Cl)ccc1NC(=O)CCc1ccc(S(=O)(=O)NCC(C)C)cc1 [MMV161996]	-0.05	0.10	–
COc1cc(CN2CCC3(C=Cc4ccccc43)CC2)cc2c1OCO2 [MMV688941]	-0.50	-0.49	–
